Data: US11945881B2, “Neoantigens expressed in ovarian cancer and their uses” (Janssen Biotech, Inc., priority 2020, dated 2024)

Legend:
CD8+ T cells = assay: exogenous autologous normal donor restimulation assay, TNFα/IFNγ double positive CD8+ T cells by flow cytometry; format: cell-based, human; conditions: for Fold change (CD8+) vs. DMSO: maximum CD8+ T-cell response (TNFα and IFNγ); for Fold change (CD8+) vs. DMSO / Frequency (TNFα + IFNγ + CD8 T cells): donor independent, peptide pool 10 μg/mL, healthy donors; for Frequency (TNFα + IFNγ + CD8 T cells): maximum CD8+ T-cell response; for Immunogenic (yes/no): positive if CD8+ and/or CD4+ double positive TNFα/IFNγ frequency >=3-fold over DMSO and at least 0.01%
Procedure: (§1) The immunogenicity of neoantigens was assessed using the exogenous autologous normal donor restimulation assay. […] The lyophilized peptides were solubilized in 100% DMSO.
(§2) CD1c+ Dendritic Cells (CD1c+DC) isolated from human healthy PBMCs were thawed using media (IMDM (Gibco) supplemented with glutamine, HEPES, 5% human serum (Sigma), and 1× Pen-Strep). DC cells were resuspended in media supplemented with IL-4 (Peprotech, 20 ng/mL) and GM-CSF (Gibco, 20 ng/mL), plated in 6 well microplates, and rested overnight at 37° C. and 5% CO2 incubator. The following day, DC cells were counted and plated in a 96 well round bottom microplate at a concentration of 30,000 viable cells per well. Lyophilized neoantigen peptide pools (15-mer peptides with 8-mer overlapping peptide sequences) were solubilized in 100% DMSO with a stock concentration of 20 mg/mL Neoantigen peptides pools were added to DCs for a final concentration of 10 μg/mL and rested for 2 hours at 37° C. and 5% CO2 incubator. CEF Peptide Pool “Plus” (Cellular Technologies, Ltd.) was utilized as a positive control (each viral peptide at a final concentration of 4 ug/ml) and DMSO at the same final concentration (0.05%) as the experimental peptides was utilized as a negative control. After 2 hours, DC cells were irradiated with 50 gray of ionizing radiation. Autologous CD3+ Pan-T cells isolated from human normal PBMCs were thawed using media. Following irradiation, autologous Pan-T cells were added to the irradiated DCs at 300,000 viable cells per well. Human IL-15 (Peprotech) was added to all wells at final concentration of 10 ng/ml. Plates were incubated at 37° C. and 5% CO2 incubator for a total of 12 days. Media was refreshed every 2-3 days with IL-15 (R&D System, 10 ng/mL final concentration) and IL-2 (R&D systems, 10 IU/mL final concentration).
(§3) On Day 11, cells were re-stimulated with identical experimental peptide pools or controls, at same concentration as peptide stimulation on Day 1. Protein Inhibitor Cocktail (eBioscience) was added to every well and plate was incubated overnight for 14-16 hours at 37° C. and 5% CO2 incubator. On Day 12, cells were stained for surface and intracellular flow cytometry analysis. The cells were washed with PBS and stained with Live/Dead Fixable Aqua Dead Cell stain (Thermo-Fisher). Following the live/dead stain, cells were blocked using Biotin-Fre Fc Receptor Blocker (Accurate Chemical & Scientific Corp). Extracellular cellular flow panel ([…] per well in 50 μL) consisted of CD3 PerCP-Cy5.5 (Biolegend), CD4 BV421 (Biolegend), and CD8 APC-Cy7 (Biolegend). After extracellular staining, cells were fixed and permeabilized using Foxp3/Transcription Factor Staining Buffer Set (eBioscience) and stained for intracellular proteins (1:50 dilution) using TNFα FITC (R&D Systems) and IFNγ BV785 (Biolegend). Cells were washed and resuspended in stain buffer, analyzed, and recorded in a BD Celesta flow cytometer.
(§4) Flow cytometry analysis was conducted on FlowJo v10.6 software. Cells were gated on live, singlet, CD3+, CD4+ and CD8+ T cells. The CD8+ and CD4+ T cells were analyzed for TNFα and IFNγ expression.
(§5) The immunogenicity of neoantigens was first investigated in 9-16 healthy donors.

CD4+ T cells = assay: exogenous autologous normal donor restimulation assay, TNFα/IFNγ double positive CD4+ T cells by flow cytometry; format: cell-based, human; conditions: donor independent, peptide pool 10 μg/mL, healthy donors; for Fold change (CD4+) vs. DMSO: maximum CD4+ T-cell response (TNFα and IFNγ); for Frequency (TNFα + IFNγ + CD4 T cells): maximum CD4+ T-cell response
Procedure: as §1, §2, §3, §4, §5

Row | Sequence | Fold change (CD8+) vs. DMSO (CD8+ T cells) | Frequency (TNFα + IFNγ + CD8 T cells) (CD8+ T cells) | Immunogenic (yes/no) (CD8+ T cells) | Fold change (CD4+) vs. DMSO (CD4+ T cells) | Frequency (TNFα + IFNγ + CD4 T cells) (CD4+ T cells)
1 | NANSRLPEACEK [AS100, neoantigen, alternative splicing of FRYL] | 63.36 fold | 0.099% | Yes | 6.02 fold | 0.039%
2 | NIEDVATEDGRHGGCHHGPGR [AS71, neoantigen, alternative splicing of SLC6A2] | 11.78 fold | 0.074% | Yes | 10.95 fold | 0.038%
3 | NLQLLTQGYSGIWRYP [AS118, neoantigen, alternative splicing of SAMD12] | 2.42 fold | 0.038% | Yes | 5.25 fold | 0.034%
4 | NYGNLFSLAGSLHFTA [AS89, neoantigen, alternative splicing of ZNF727] | 142.04 fold | 0.26% | Yes | 7.02 fold | 0.061%
5 | PGHGAICREEV [AS62, neoantigen, alternative splicing of IMPG2] | 28.06 fold | 0.055% | Yes | 14.25 fold | 0.063%
6 | PSLSTRLTSKDPQPLQSHYWGLIGNDPFLRSKKRVN [AS4, neoantigen, alternative splicing of MUC16] | 7.55 fold | 0.068% | Yes | 11.53 fold | 0.093%
7 | PSPSTPNHSQQAICHPGRRP [AS105, neoantigen, alternative splicing of MPRIP] | 1.76 fold | 0.02% | Yes | 14.72 fold | 0.14%
8 | PSSLPGPTGKYQSMVFGAWLMSVNISVYTLLEHG [AS140, neoantigen, alternative splicing of MUC16] | 115.04 fold | 0.22% | Yes | 79.1 fold | 0.14%
9 | QATPSSILCFRLACLWLLRKGLLDLTW [AS15, neoantigen, alternative splicing of IMPG2] | 48.05 fold | 0.08% | Yes | 11.36 fold | 0.023%
10 | QHLQQEACVTSAGKQS [AS19, neoantigen, alternative splicing of PLEKHG4B] | 182.29 fold | 0.7% | Yes | 5.69 fold | 0.06%
11 | QLNLSETQFAQYAEIV [FUS2, neoantigen, gene fusion VAX2->ATP6V1B1] | 593.75 fold | 2.28% | yes | 21.76 fold | 0.026%
12 | QTDFAYDSGKRLGWGRVACDQVFS [AS3, neoantigen, alternative splicing of ETV4] | 133.13 fold | 0.43% | Yes | 7.31 fold | 0.1%
13 | QTQEETDRDRGSWSCAVA [AS64, neoantigen, alternative splicing of IQGAP3] | 33.44 fold | 0.21% | Yes | 5.43 fold | 0.024%
14 | RASCGAQKACDVNQLTSS [FUS17, neoantigen, gene fusion C20orf204->TCEA2] | 13.53 fold | 0.23% | Yes | 6.91 fold | 0.045%
15 | RGGRGAQENSLD [FUS10, neoantigen, gene fusion SCNN1A->TNFRSF1A] | 896.55 fold | 19.5% | yes | 20.13 fold | 0.072%
16 | RLDDSGIGNFITSLLNFISKFFCSFMGA [AS99, neoantigen, alternative splicing of FAM221A] | 160.85 fold | 1.43% | Yes | 4 fold | 0.077%
17 | RNTLKESSKLKSSFEYWFAGFFSSSSSFFFLSRKFCFVFCLCWVESLGGVS [AS157, neoantigen, alternative splicing of ZIC4] | 51.78 fold | 0.16% | Yes | 5.53 fold | 0.083%
18 | RRHGEVQGLLEREKTARGNPSG [AS72, neoantigen, alternative splicing of SMC1B] | 8.6 fold | 0.23% | Yes | 4.15 fold | 0.036%
19 | RSSGLTTSSEYSTHVHMPLILHQAEQELLLLINP [AS141, neoantigen, alternative splicing of MUC16] | 3.82 fold | 0.041% | Yes | 6.94 fold | 0.045%
20 | RYWTPATSSEYSNL [AS143, neoantigen, alternative splicing of MUC16] | 12.1 fold | 0.13% | Yes | 3.6 fold | 0.033%
21 | SGCRLTLLSLSPVSSLGCPVPMP [AS107, neoantigen, alternative splicing of MUC16] | 2351.27 fold | 16.6% | Yes | 14.89 fold | 0.062%
22 | SHALNWNKIGRMFRASRV [AS65, neoantigen, alternative splicing of LCN10] | 82.3 fold | 2.2% | Yes | 73.69 fold | 0.64%
23 | SISLTDDEAELPLLDL [AS77, neoantigen, alternative splicing of EP400] | 6.59 fold | 0.12% | Yes | 20.73 fold | 0.18%
24 | SMMEGVIQLSFKAIVCLLSCLDLLSLFRVVRHLS [AS94, neoantigen, alternative splicing of AFDN] | 1080.99 fold | 9.61% | Yes | 62.76 fold | 0.098%
